Source: US10350206B2, “Benzyl substituted indazoles as BUB1 inhibitors” (Bayer Pharma Aktiengesellschaft, priority 2014, dated 2019)

What was measured:
[1] = tested on: HeLa human cervical tumor cells; experiment: Proliferation assay (HeLa cell line); assay type: cell-based; conditions: 96 h, 4 days incubation, crystal violet, read-out: Biological Assay 2: Proliferation assay (HeLa cell line) median IC50
[2] = biological target: T1, catalytic domain of human Bub1 (amino acids 704-1085) (Homo sapiens, UniProt O43683); experiment: Bub1 kinase assay (TR-FRET); assay type: biochemical; conditions: 10 μM ATP, 60 min reaction, pH 7.5; read-out: Biological Assay 1: Bub1 kinase assay median IC50
T1 construct: catalytic domain of human Bub1 (amino acids 704-1085); His6 (N); made in house; host or cells: Hi5 insect cells

[3] = tested on: Bub1 kinase (pre-induced phospho-histone 2A); experiment: H2A Abrogation-Assay (cell-based mechanistic assay, pre-treatment with Nocodazole); conditions: Nocodazole 1 μg/ml 16 h, then test compound 1 h; read-out: Biological Assay 4.2: H2A Abrogation IC50
[4] = tested on: HeLa human cervical tumor cells; experiment: Proliferation Assay (HeLa+Paclitaxel); assay type: cell-based; conditions: 3 nM paclitaxel, test substance 92 hours; read-out: Biological Assay 3: Proliferation Assay (HeLa + Paclitaxel) IC50

T1 sequence (O43683 704-1085): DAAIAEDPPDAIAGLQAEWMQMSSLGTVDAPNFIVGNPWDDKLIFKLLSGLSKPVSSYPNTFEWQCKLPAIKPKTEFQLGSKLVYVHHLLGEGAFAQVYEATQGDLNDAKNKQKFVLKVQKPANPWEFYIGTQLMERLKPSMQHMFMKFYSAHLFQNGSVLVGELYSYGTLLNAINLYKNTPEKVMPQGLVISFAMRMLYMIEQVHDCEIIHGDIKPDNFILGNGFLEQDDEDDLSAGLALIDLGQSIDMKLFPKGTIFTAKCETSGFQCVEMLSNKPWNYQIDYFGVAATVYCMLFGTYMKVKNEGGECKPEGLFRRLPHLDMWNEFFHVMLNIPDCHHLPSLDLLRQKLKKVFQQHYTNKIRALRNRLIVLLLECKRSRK

Q: With COc1cnc(-c2nn(Cc3c(F)cc(OCCO)cc3F)c3ccccc23)nc1Nc1ccnc(C)c1 [Example 2-1-2, 2-{3,5-difluoro-4-[(3-{5-methoxy-4-[(2-methylpyridin-4-yl)amino]pyrimidin-2-yl}-1H-indazol-1-yl)methyl]phenoxy}ethanol] as the compound, how does the IC50 [1] read?
A: 1300 nM

Q: And the IC50 [2]?
A: 24 nM

Q: What about the IC50 [3] of the same compound?
A: 11 nM

Q: And the IC50 [4]?
A: 350 nM

Q: Which results are given for COc1cnccc1Nc1nc(-c2nn(Cc3c(F)cc(OCCO)cc3F)c3ccccc23)ncc1OC [Example 2-1-3, 2-{3,5-difluoro-4-[(3-{5-methoxy-4-[(3-methoxypyridin-4-yl)amino]pyrimidin-2-yl}-1H-indazol-1-yl)methyl]phenoxy}ethanol]?
A: IC50 [1]: 1700 nM; IC50 [2]: 7.1 nM; IC50 [3]: 29 nM; IC50 [4]: 63 nM
